What was measured:
[1] = test system: Trypanosoma cruzi epimastigotes (Y strain (TCII)); assay: Proliferation of T. cruzi epimastigotes, MTT test, single concentration; type: cell-based; conditions: 72 h incubation; for inhibition at 50 µM: Trypanosoma cruzi, 72 h, read-out: T. cruzi % Inhibition ± SD (antiproliferative activity); for T. cruzi % Inhibition ± SD (antiproliferative activity): 50 μM
Description: A drug-free control (negative control) was included and positive controls were Metronidazole (Mtz), Benznidazole (Bnz), Amphotericin B (Aph), and Nifurtimox (Nfx), (50 μM). […] Parasites were collected in the logarithmic phase of growth before the experiments. It was arranged in plates of 96 wells, 2 × 10^5 epimastigotes per well and incubated at 28 °C for 24 h. Subsequently, the compounds to be evaluated, dissolved in DMSO (0.1% final), were added at a single concentration of 50 μM. A drug-free control (negative control) was included, and benznidazole and nifurtimox were included as positive controls. […] Finally, the cells were lysed with DMSO and the plate was read in a spectrophotometer at 570 nm.

[2] = test system: Trypanosoma cruzi epimastigotes (Y strain (TCII)); assay: Estimation of IC50 on epimastigotes of T. cruzi, MTT test; type: cell-based; conditions: 72 h, eight concentrations 5–500 µM, triplicate
Description: (§1) Parasites were collected in the logarithmic phase of growth before the experiments. The test compounds, as well as the reference drugs, metronidazole, nifurtimox and amphotericin B, were previously dissolved in DMSO and then in LIT medium and added to the cultures at the required concentrations; the final DMSO concentration in cultures was 1% (v/v). Eight concentrations of each compound in the range 5–500 µM were tested and assayed in triplicate. Growth inhibition was assessed after 72 h incubation in the presence of the compounds by MTT (5 mg/mL), dissolved in PBS, and incubated for 4 h in the dark. Finally, the parasites were lysed with DMSO and the plate was read in a spectrophotometer at 570 nm.

[3] = test system: Leishmania donovani promastigotes (LD51 strain); assay: Estimation of IC50 on promastigotes of L. donovani, MTT test; type: cell-based; conditions: 72 h, eight concentrations 5–500 µM, triplicate
Description: as §1

[4] = test system: Leishmania donovani promastigotes (LD51 strain); assay: Proliferation of L. donovani promastigotes, MTT test, single concentration; type: cell-based; conditions: 72 h incubation, read-out: L. donovani % Inhibition ± SD (antiproliferative activity)
Description: A drug-free control (negative control) was included and positive controls were Metronidazole (Mtz), Benznidazole (Bnz), Amphotericin B (Aph), and Nifurtimox (Nfx), (50 μM). […] Parasites were collected in the logarithmic phase of growth before the experiments. It was arranged in plates of 96 wells, 4 × 10^5 promastigotes per well and incubated at room temperature °C for 24 h. Subsequently, the compounds to be evaluated, dissolved in DMSO (0.1% final), were added at a single concentration of 50 μM, a drug-free control (negative control) was included, and amphotericin B was used as leishmanicidal control. To select those compounds active on promastigotes, it was incubated for 72 h after and then MTT (5 mg/mL), dissolved in PBS, was added and incubated for 4 h in the dark. Finally, the cells were lysed with DMSO and the plate was read in a spectrophotometer at 570 nm.

[5] = Host cell toxicity assay, MTT; type: cell-based; conditions: African green monkey, Vero cells (uninfected); Vero cells, 48 h, MTT; read-out: CC50 (μM) cytotoxicity on Vero cells
Description: (§2) To determine the possible toxic effects of the compounds on the host cells, uninfected Vero cells, maintained in DMEM, BSF 10%, incubated at 37 °C in humidified 5% CO2, were counted in suspension in a Neubauer chamber and seeded at 2 × 10^4 cells/well in a 96-well plate. After 24 h compounds were added. […] A total of 5 mg/mL of MTT was added and incubated in darkness for 4 h. After this time, DMSO was added and the plate was read at 540 nm in a spectrophotometer Synergy HT (Biotek, Winooski, VT, USA).

[6] = test system: Vero cells; assay: Host cell toxicity assay, MTT; type: cell-based; conditions: for L. donovani (SI) selectivity index: Vero cells CC50 versus L. donovani IC50; for T. cruzi (SI) selectivity index: Vero cells CC50 versus T. cruzi IC50
Description: as §2

IC50 [2] | melting point | Structure (SMILES) | inhibition at 50 µM [1] | IC50 [3] | inhibition at 50 µM [4] | CC50 at 48 h [5] | T. cruzi % Inhibition ± SD (antiproliferative activity) [1] | L. donovani (SI) selectivity index [6] | T. cruzi (SI) selectivity index [6]
180 ± 18.9 µM | – | Cc1ncc([N+](=O)[O-])n1CCO [Mtz, Metronidazole, reference compound] | 12.2 ± 5.3% | 50.3 ± 11.9 µM | – | – | – | – | –
– | 252 °C | COc1cc(-c2nnc(Nc3ccc(C(=O)OCCn4c([N+](=O)[O-])cnc4C)cc3)s2)cc(OC)c1OC [Compound 23, 2-(2-Methyl-5-nitro-1H-imidazol-1-yl)ethyl-4-{[5-(3,4,5-trimethoxyphenyl)-1,3,4-thiadiazol-2-yl]amino}benzoate] | 20.3 ± 6.73% | – | 12.7 ± 2.31% | – | – | – | –
1.81 ± 0.45 µM | – | CC1CS(=O)(=O)CCN1/N=C/c1ccc([N+](=O)[O-])o1 (stereo not shown) [Nfx, Nifurtimox, reference compound] | 83 ± 1.6% | – | – | > 90 µM | – | – | –
– | > 300 °C | Cc1ncc([N+](=O)[O-])n1CCOC(=O)c1ccc(Nc2nnc(-c3ccc(-c4ccccc4)cc3)s2)cc1 [Compound 22, 2-(2-Methyl-5-nitro-1H-imidazol-1-yl)ethyl-4-{[5-((1,1’-biphenyl)-4-yl)-1,3,4-thiadiazol-2-yl]amino}benzoate] | 7 ± 2.28% | – | 12.9 ± 2.08% | – | – | – | –

Continued, compound first:

Structure (SMILES) | IC50 [2] | melting point | inhibition at 50 µM [1] | IC50 [3] | inhibition at 50 µM [4] | CC50 at 48 h [5] | T. cruzi % Inhibition ± SD (antiproliferative activity) [1] | L. donovani (SI) selectivity index [6] | T. cruzi (SI) selectivity index [6]
C[C@@H]1[C@H](O)[C@@H](C)/C=C/C=C/C=C/C=C/C=C/C=C/C=C/[C@H](O[C@@H]2O[C@H](C)[C@@H](O)[C@H](N)[C@@H]2O)C[C@@H]2O[C@](O)(C[C@@H](O)C[C@@H](O)[C@H](O)CC[C@@H](O)C[C@@H](O)CC(=O)O[C@H]1C)C[C@H](O)[C@H]2C(=O)O [Aph, Amphotericin B, reference compound] | – | – | – | 0.33 ± 0.02 µM | 62.4 ± 6.6% | > 250 µM | – | – | –
Cc1ncc([N+](=O)[O-])n1CCOC(=O)c1ccc(Nc2nnc(-c3ccccc3)s2)cc1 [Compound 21, 2-(2-Methyl-5-nitro-1H-imidazol-1-yl)ethyl-4-[(5-phenyl-1,3,4-thiadiazol-2-yl)amino]benzoate] | 55.5 ± 7.2 µM | 240 to 242 °C | ~50% | 10.1 ± 2.21 µM | 71.4 ± 5.28% | > 500 µM | 58.35 ± 2.05% | >49.65 | >9.01
Cc1ncc([N+](=O)[O-])n1CCOC(=O)c1ccc(Nc2nnc(-c3ccc(Cl)cc3)s2)cc1 [Compound 20, 2-(2-Methyl-5-nitro-1H-imidazol-1-yl)ethyl-4-{[5-(4-chlorophenyl)-1,3,4-thiadiazol-yl]amino}benzoate] | 51.7 ± 6.59 µM | 242 to 244 °C | ~50% | 54.5 ± 8.51 µM | 40.4 ± 4.18% | > 500 µM | 49.37 ± 4.45% | >9.17 | >9.67
O=C(Cn1ccnc1[N+](=O)[O-])NCc1ccccc1 [Bnz, Benznidazole, reference compound] | – | – | 45.4 ± 6.21% | – | – | – | – | – | –
Cc1ncc([N+](=O)[O-])n1CCOC(=O)c1ccc(Nc2nnc(-c3cccnc3)s2)cc1 [Compound 18, 2-(2-Methyl-5-nitro-1H-imidazol-1-yl)ethyl-4-[(5-(pyridin-3-yl)-1,3,4-thiadiazol-2-yl]amino)benzoate] | – | 232 to 234 °C | 17.4 ± 14.4% | – | 10.1 ± 2.92% | – | – | – | –
Cc1ncc([N+](=O)[O-])n1CCOC(=O)c1ccc(Nc2nnc(-c3cccc(Cl)c3)s2)cc1 [Compound 19, 2-(2-Methyl-5-nitro-1H-imidazol-1-yl)ethyl-4-{[5-(3-chlorophenyl)-1,3,4-thiadiazol-2-yl]amino}benzoate] | 56.3 ± 6.83 µM | 202 to 204 °C | ~50% | 59.7 ± 8.82 µM | 31.8 ± 1.95% | > 500 µM | 53.10 ± 3.68% | >8.37 | >8.87

— publication PMC11396972, “Synthesis of Hybrid Molecules with Imidazole-1,3,4-thiadiazole Core and Evaluation of Biological Activity on Trypanosoma cruzi and Leishmania donovani” (Molecules, 2024)
